Experimental data published in patent US9834564B2, “Substituted quinolines as PDE-10 inhibitors” (priority 2010, dated 2017).

Molecular target: recombinant human PDE-10 enzyme (PDE-10A) (Homo sapiens (Human), UniProt Q9Y233)
Assay: IMAP PDE Fluorescence Polarization assay, human PDE-10 inhibition (enzyme assay)
Type: biochemical
Details: recombinant human PDE-10, fluorescein-labeled cAMP/cGMP substrate, 40 min at 37° C.
Experimental: In one embodiment, the compounds provided herein were assayed for their ability to inhibit human PDE-10A. In one embodiment, the activities of the compounds were determined using the Molecular Devices IMAP PDE Fluorescence Polarization assay using recombinant human PDE-10 enzyme expressed in a baculoviral system. Briefly, 10 μL of a compound (0.2 nM-20 μM) was added to either a 96-well half area black plate or a 384-well black plate along with 10 μL of Fluorescein-labeled cAMP/cGMP substrate as per manufacturer's instructions and 10 μL of PDE enzyme (activity 0.1 U). Following a 40-minute incubation at 37° C., 60 μL of IMAP binding reagent was added. […] The data was analyzed using Prism Software (GraphPad Inc, San Diego, Calif.).

Sequence of recombinant human PDE-10 enzyme (PDE-10A) (Q9Y233 whole entry): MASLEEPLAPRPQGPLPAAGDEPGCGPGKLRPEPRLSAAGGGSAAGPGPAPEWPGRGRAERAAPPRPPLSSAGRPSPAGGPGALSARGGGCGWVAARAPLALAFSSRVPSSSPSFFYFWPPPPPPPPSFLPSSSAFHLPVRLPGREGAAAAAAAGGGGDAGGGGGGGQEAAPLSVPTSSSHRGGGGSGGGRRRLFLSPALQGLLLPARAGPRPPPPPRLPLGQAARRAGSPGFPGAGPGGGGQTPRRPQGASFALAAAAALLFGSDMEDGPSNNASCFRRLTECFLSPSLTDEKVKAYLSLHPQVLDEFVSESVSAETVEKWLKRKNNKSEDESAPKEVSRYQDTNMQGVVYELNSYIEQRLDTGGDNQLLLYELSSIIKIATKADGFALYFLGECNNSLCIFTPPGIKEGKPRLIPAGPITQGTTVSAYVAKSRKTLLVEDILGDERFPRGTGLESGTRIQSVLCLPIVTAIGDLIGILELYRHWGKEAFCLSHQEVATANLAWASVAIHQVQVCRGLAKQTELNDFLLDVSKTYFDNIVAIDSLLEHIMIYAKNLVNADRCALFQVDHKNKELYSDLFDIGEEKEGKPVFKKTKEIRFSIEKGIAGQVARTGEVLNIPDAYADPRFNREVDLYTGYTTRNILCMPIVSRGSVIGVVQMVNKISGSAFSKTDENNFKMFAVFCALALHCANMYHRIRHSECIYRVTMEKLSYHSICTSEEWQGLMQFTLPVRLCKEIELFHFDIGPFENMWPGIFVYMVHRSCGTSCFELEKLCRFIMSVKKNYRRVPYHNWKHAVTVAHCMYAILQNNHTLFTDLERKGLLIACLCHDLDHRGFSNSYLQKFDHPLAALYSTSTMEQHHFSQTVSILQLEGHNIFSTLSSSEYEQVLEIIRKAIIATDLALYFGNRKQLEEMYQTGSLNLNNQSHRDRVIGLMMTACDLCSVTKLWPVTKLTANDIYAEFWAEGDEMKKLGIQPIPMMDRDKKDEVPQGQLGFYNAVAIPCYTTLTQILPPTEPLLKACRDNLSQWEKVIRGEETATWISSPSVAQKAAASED

Cn1cc(-c2ccncc2)nc1CCc1cnc2ccccc2n1 [Compound 47]
IC50: > 10 µM

Cc1c(CCc2cnc3ccccc3n2)nc2c3cccnc3ccn12 [Compound 190]
IC50: < 0.5 µM

C(=C\c1nc(-c2ccccc2)c[nH]1)/c1ccccn1 [Compound 32]
IC50: > 10 µM

c1ccc(-c2c[nH]c(SCc3cnc4ccccc4n3)n2)cc1 [Compound 122]
IC50: > 10 µM

O=c1[nH]c(CCc2cc(-c3ccccc3)no2)nc2ccccc12 [Compound 113]
IC50: > 10 µM

Cc1ncc(C)n2nc(CCc3ccc4ccc5c(c4n3)NCCO5)nc12 [Compound 168]
IC50: 1 to 10 µM

Cn1c(CCc2cccc(-c3cccnc3)n2)nc2c3cccnc3ccc21 [Compound 207]
IC50: 1 to 10 µM

Cn1c(/C=C/c2nc3ccccc3c(=O)[nH]2)nc2ccccc21 [Compound 23]
IC50: 1 to 10 µM

Cc1cnc(C)c(CCc2nc3c4cccnc4ccc3n2C)n1 [Compound 205]
IC50: < 0.5 µM

c1ccc(-c2c[nH]c(CCc3cccs3)n2)cc1 [Compound 29]
IC50: > 10 µM

Cc1ncc(C)n2nc(CCc3ccc4ccc5nccnc5c4n3)nc12 [Compound 141]
IC50: < 0.5 µM

Cn1c(CCc2cnc3ccccc3n2)nc2c3ncccc3ccc21 [Compound 154]
IC50: < 0.5 µM

O=c1[nH]c(/C=C/c2nc3ccccc3[nH]2)nc2ccccc12 [Compound 22]
IC50: > 10 µM

c1cnc2ccc(CCc3nc4c5cccnc5ccn4n3)nc2c1 [Compound 176]
IC50: < 0.5 µM

COc1cccc2ccc(CCc3ccc4ccc5cccnc5c4n3)nc12 [Compound 162]
IC50: 1 to 10 µM

Cn1c(CCc2cnc3cccc(Cl)c3n2)nc2c3cccnc3ccc21 [Compound 191]
IC50: < 0.5 µM

Cc1ccc(-c2cn(C)c(CCc3ccc4ncccc4n3)n2)cn1 [Compound 174]
IC50: 0.5 to 1 µM

c1ccc2nc(CCc3nc(-c4ccncc4)c[nH]3)cnc2c1 [Compound 74]
IC50: 1 to 10 µM

Cc1ccc2ccc(CCc3nc4c(C)ncc(C)n4n3)nc2c1C [Compound 128]
IC50: < 0.5 µM

Cn1c(CCc2cnc3c(C(F)(F)F)ccc(C(F)(F)F)c3n2)nc2c3cccnc3ccc21 [Compound 143]
IC50: < 0.5 µM

c1ccc2nc(CCc3cnc4ccccc4n3)cnc2c1 [Compound 118]
IC50: 1 to 10 µM

Cc1ccc(C)c2nc(CCc3nc4c5cccnc5ccc4n3C)cnc12 [Compound 88]
IC50: < 0.5 µM

Cn1c(CCc2ccc3cccnc3n2)nc2c3cccnc3ccc21 [Compound 203]
IC50: < 0.5 µM

Cn1cc(-c2ccccc2)nc1CCc1cccc(C(N)=O)n1 [Compound 151]
IC50: > 10 µM

c1cnc2c(c1)ccc1ccc(CCc3cnc4ccccc4n3)nc12 [Compound 158]
IC50: < 0.5 µM

c1ccc(-c2nc(CCc3cnc4ccccc4n3)n3c2CCCC3)cc1 [Compound 114]
IC50: < 0.5 µM

Cc1ncc(C)n2nc(CCc3nc4ccccc4cc3F)nc12 [Compound 127]
IC50: < 0.5 µM

c1ccc2nc(CCc3nc4cc5c(cc4[nH]3)OCO5)cnc2c1 [Compound 98]
IC50: 1 to 10 µM

Cc1ncc(C)n2nc(CCc3ccc4ccc5cccnc5c4n3)nc12 [Compound 133]
IC50: < 0.5 µM

Cc1ccc2ncc(CCc3nc4c(C)ncc(C)n4n3)nc2c1C [Compound 135]
IC50: < 0.5 µM

O=c1[nH]c(CCc2nc(-c3cc4ccccc4o3)c[nH]2)nc2ccccc12 [Compound 53]
IC50: 1 to 10 µM

Cc1ccnc2ccc(CCc3nc4c5cccnc5ccc4n3C)nc12 [Compound 186]
IC50: < 0.5 µM

Cn1c(CCc2ccc3ccccc3n2)nc2c3cccnc3ccc21 [Compound 85]
IC50: < 0.5 µM

O=c1[nH]c(CCc2nc(-c3ccc(-c4ccccc4)cc3)c[nH]2)nc2ccccc12 [Compound 63]
IC50: > 10 µM

c1ccc2nc(CCc3nc4c5cccnc5ccn4n3)cnc2c1 [Compound 188]
IC50: < 0.5 µM

c1cnc2c(c1)ccc1ccc(CCc3nc4ccccn4n3)nc12 [Compound 156]
IC50: < 0.5 µM

Cn1c(CCc2ccc3ccc4cccnc4c3n2)nc2c3cccnc3ccc21 [Compound 171]
IC50: < 0.5 µM

c1ccc(-c2csc(CCc3cnc4ccccc4n3)n2)cc1 [Compound 108]
IC50: < 0.5 µM

Cc1ncc(C)n2nc(CCc3ccc4ncccc4n3)nc12 [Compound 140]
IC50: < 0.5 µM

COc1cc2nc(CCc3cnc4ccccc4n3)[nH]c2cc1OC [Compound 96]
IC50: 1 to 10 µM

Cc1cnc(C)c(CCc2nc(-c3ccccc3)cn2C)n1 [Compound 172]
IC50: < 0.5 µM

Cn1cc(-c2ccccc2)nc1CCc1cccc(-n2ccnc2)n1 [Compound 150]
IC50: 1 to 10 µM

Cc1cc2ncccc2c2nc(CCc3ccc4ccccc4n3)n(C)c12 [Compound 170]
IC50: < 0.5 µM

Cc1ccnc2ccc(CCc3nc4c5cccnc5ccn4c3C)nc12 [Compound 187]
IC50: < 0.5 µM

O=c1[nH]c(CCn2cnc(-c3ccccc3)c2)nc2ccccc12 [Compound 27]
IC50: 1 to 10 µM

Cc1c(CCc2ccc3cc(C(F)(F)F)cnc3n2)nc2c3cccnc3ccn12 [Compound 185]
IC50: 0.5 to 1 µM

Cc1ncc(C)n2nc(CCc3ccc4c(F)ccc(F)c4n3)nc12 [Compound 129]
IC50: 0.5 to 1 µM

Cc1ncc(C)n2nc(CCc3ccc4ccc(F)c(F)c4n3)nc12 [Compound 131]
IC50: < 0.5 µM

O=c1[nH]c(CCc2cc(-c3ccccc3)n[nH]2)nc2ccccc12 [Compound 14]
IC50: 1 to 10 µM

FC(F)(F)c1ccc2[nH]c(CCc3cnc4ccccc4n3)nc2c1 [Compound 104]
IC50: 1 to 10 µM

Cn1cc(-c2ccncc2)nc1CCc1ccc2ccccc2n1 [Compound 41]
IC50: 1 to 10 µM

Cn1nc(-c2ccccc2)cc1CCc1nc2ccccc2c(=O)[nH]1 [Compound 15]
IC50: 1 to 10 µM

FC(F)(F)Oc1ccc2[nH]c(CCc3cnc4ccccc4n3)nc2c1 [Compound 105]
IC50: 1 to 10 µM

Cc1ncc(C)n2nc(CCc3ccc4ccncc4n3)nc12 [Compound 139]
IC50: 1 to 10 µM

Cc1ccc2ccc(CCc3nc4c5cccnc5ccn4c3C)nc2n1 [Compound 198]
IC50: 0.5 to 1 µM

CC(C)(C)c1ccc2nc(CCc3cnc4ccccc4n3)[nH]c2c1 [Compound 100]
IC50: 1 to 10 µM

Oc1cccc2nc(CCc3cnc4ccccc4n3)[nH]c12 [Compound 99]
IC50: 0.5 to 1 µM

Cn1cc(-c2ccccc2)nc1CCc1cccc(-c2ccncc2)n1 [Compound 152]
IC50: 1 to 10 µM

O=c1[nH]c(CCc2nc(-c3cccc4ccccc34)c[nH]2)nc2ccccc12 [Compound 55]
IC50: 1 to 10 µM

Cn1c(CCc2nc3ccccc3c(=O)[nH]2)nc2ccccc21 [Compound 24]
IC50: > 10 µM

c1ccc(-c2c[nH]c(CCc3ccccn3)n2)cc1 [Compound 33]
IC50: > 10 µM

Cc1ccc2nc(CCc3cn4ccc5ncccc5c4n3)ccc2n1 [Compound 200]
IC50: < 0.5 µM

Cn1c(CCc2cccc(-c3ccccn3)n2)nc2c3cccnc3ccc21 [Compound 206]
IC50: 0.5 to 1 µM

c1cnc2nc(CCc3nc4c5cccnc5ccn4n3)ccc2c1 [Compound 177]
IC50: 0.5 to 1 µM

Cc1ccc2nc(CCc3nc4c(C)ncc(C)n4n3)cnc2c1C [Compound 136]
IC50: < 0.5 µM

Cc1ccc(-c2cn(C)c(CCc3cnc4ccccc4n3)n2)cn1 [Compound 173]
IC50: > 10 µM

c1cncc(-c2c[nH]c(CCc3cnc4ccccc4n3)n2)c1 [Compound 78]
IC50: < 0.5 µM

c1ccc(-c2cccc(CCc3cnc4ccccc4n3)n2)cc1 [Compound 81]
IC50: > 10 µM

O=c1[nH]c(CCc2nc3ccccc3o2)nc2ccccc12 [Compound 109]
IC50: > 10 µM

Cc1ncc(C)c2nc(CCc3nc4c5cccnc5ccn4n3)ccc12 [Compound 167]
IC50: < 0.5 µM

c1ccc2nc(CCc3nc4ccccc4o3)cnc2c1 [Compound 107]
IC50: > 10 µM

Cn1c(CCc2cnc3ccccc3n2)nc2ccc3ncccc3c21 [Compound 83]
IC50: 1 to 10 µM

Cc1ncc(C)n2nc(CCc3ccc4cccnc4n3)nc12 [Compound 138]
IC50: < 0.5 µM

O=c1[nH]c(CCc2nc(-c3ccccc3)c[nH]2)nc2cc3ccccc3cc12 [Compound 6]
IC50: > 10 µM

c1ccc2nc(CCc3nc(-c4ccncc4)c[nH]3)ccc2c1 [Compound 68]
IC50: 1 to 10 µM

c1ccc2nc(CCc3nc4c5ncccc5ccn4n3)ccc2c1 [Compound 153]
IC50: < 0.5 µM

Fc1cnc2nc(CCc3nc4c5cccnc5ccn4n3)ccc2c1 [Compound 181]
IC50: < 0.5 µM

c1ccc2nc(CCc3nc4ccccc4s3)cnc2c1 [Compound 117]
IC50: 1 to 10 µM

Cc1cc2c(nc(CCc3ccc4ccccc4n3)n2C)c2cccnc12 [Compound 169]
IC50: > 10 µM

O=c1[nH]c2ccccc2nc1CCc1nc(-c2ccccc2)c[nH]1 [Compound 2]
IC50: < 0.5 µM

FC(F)(F)c1cnc2nc(CCc3nc4c5cccnc5ccn4n3)ccc2c1 [Compound 182]
IC50: > 10 µM

Cc1ncc(C)c2nc(CCc3nc4c5ncccc5ccc4n3C)ccc12 [Compound 164]
IC50: < 0.5 µM

Cn1c(CCc2nc(-c3ccccc3)c[nH]2)nc2ccccc2c1=O [Compound 10]
IC50: 1 to 10 µM

Cn1c(CCc2nc(C(F)(F)F)cc(C(F)(F)F)n2)nc2c3cccnc3ccc21 [Compound 194]
IC50: < 0.5 µM

Cn1cc(-c2cccc(F)c2F)nc1CCc1ccc2ccccc2n1 [Compound 44]
IC50: 0.5 to 1 µM

Cc1ncc(C)n2nc(CCc3ccc4ccc(Cl)c(Cl)c4n3)nc12 [Compound 132]
IC50: 0.5 to 1 µM

Cn1c(CCc2cnc3c(F)ccc(F)c3n2)nc2c3cccnc3ccc21 [Compound 148]
IC50: < 0.5 µM

Cc1ncc(CCc2nc(-c3cccnc3)cn2C)nc1C [Compound 175]
IC50: 1 to 10 µM

O=c1[nH]c(CCc2nc(-c3ccccc3)cs2)nc2ccccc12 [Compound 116]
IC50: < 0.5 µM

c1cnc2c(c1)ccn1nc(CCc3cnc4ccccc4n3)nc21 [Compound 157]
IC50: < 0.5 µM
